Legend:
[1] = test system: Megoura viceae; experiment: Pest toxicity test; assay type: in vivo; conditions: 0.1% by weight; broad bean; 2 days
[2] = test system: Aphis fabae; experiment: Pest toxicity test; assay type: in vivo; conditions: 0.1% by weight; broad bean; 2 days
[3] = test system: Tetranychus telarius (red spider mites, adults); experiment: Pest toxicity test; assay type: in vivo; conditions: 0.1% by weight; French bean; 3 days
[4] = test system: Meloidogyne incognita (nematodes); experiment: Pest toxicity test; assay type: in vivo; conditions: 0.01% by weight; water; 1 day
[5] = test system: Agriolimax reticulatus (slugs); experiment: Molluscicidal activity test; assay type: in vivo, Agriolimax reticulatus (Mull); conditions: pellet with 4% by weight; 6 days; 10°C
Method in brief: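 Compound was applied to a calf feeding pellet at 4% by weight active ingredient after 24 h air drying. Two replicates, each of 2 slugs starved 24 h, were kept with a moist filter paper at 10°C, and kill was assessed after 6 days.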

[6] = test system: Aedes aegypti (mosquito larvae); experiment: Pest toxicity test; assay type: in vivo; conditions: for Mortality grading (kill): 0.01% by weight, water, 1 day; for abnormal growth effects in larva of mosquitos: in vivo
[7] = test system: Phaedon cochleariae (mustard beetles); experiment: Pest toxicity test; assay type: in vivo
[8] = test system: Aedes aegypti (mosquito adults); experiment: Pest toxicity test; assay type: in vivo; conditions: 0.01% by weight; plywood; 1 day
[9] = test system: Pieris brassicae (cabbage white caterpillars); experiment: Pest toxicity test; assay type: in vivo; conditions: 0.1% by weight, 2 days
[10] = test system: Musca domestica (houseflies); experiment: Pest toxicity test, contact test; assay type: in vivo; conditions: 0.1% by weight; milk/sugar; 2 days; flies sprayed directly
[11] = test system: Plutella maculipennis (diamond back moth larvae); experiment: Pest toxicity test; assay type: in vivo
[12] = test system: Tetranychus telarius (red spider mites, eggs); experiment: Pest toxicity test; assay type: in vivo; conditions: 0.1% by weight; French bean; 3 days
[13] = test system: Uncinula necator (vine); experiment: Fungicidal test against foliar disease D (foliage spray plus soil drench); assay type: in vivo; conditions: 100 ppm spray and drench; 10 days
[14] = test system: Puccinia recondita (wheat); experiment: Fungicidal test against foliar disease A (foliage spray plus soil drench); assay type: in vivo; conditions: 100 ppm spray and drench; 10 days
[15] = test system: Piricularia oryzae (rice); assay type: in vivo; conditions: 100 ppm spray and drench; 7 days
[16] = test system: Plasmopara viticola (vine); experiment: Fungicidal test against foliar disease C (foliage spray plus soil drench); assay type: in vivo; conditions: 100 ppm spray and drench; 10 days
[17] = test system: Phytophthora infestans (tomato); assay type: in vivo; conditions: 100 ppm spray and drench; 3 days
[18] = 0.1% by weight, mustard/paper, 2 days

Fc1ccc(Nc2c(Cl)c(F)nc(F)c2Cl)cc1 [Compound 4, 3,5-Dichloro-2,6-difluoro-4(p-fluoroanilino)pyridine]
Mortality grading (kill) [1]: 0 (O represents less than 30% kill)
Mortality grading (kill) [2]: 0 (O represents less than 30% kill)
Mortality grading (kill) [3]: 0 (O represents less than 30% kill)
Mortality grading (kill) [4]: 2 (2 represents 60 - 90% kill)
% Kill of slugs [5]: 100%
Mortality grading (kill) [6]: 0 (O represents less than 30% kill)
abnormal growth effects in larva of mosquitos [6]: abnormal growth effects
Mortality grading (kill) [7, 18]: 0 (O represents less than 30% kill)
Mortality grading (kill) [8]: 0 (O represents less than 30% kill)
Mortality grading (kill) [9]: 0 (O represents less than 30% kill)
Mortality grading (kill), contact test [10]: 0 (O represents less than 30% kill)
Mortality grading (kill) [11, 18]: 0 (O represents less than 30% kill)
Mortality grading (kill) [12]: 0 (O represents less than 30% kill)

Fc1nc(F)c(Cl)c(Nc2cc(C(F)(F)F)ccc2Br)c1Cl [Compound 13, 3,5-Dichloro-2,6-difluoro-4(2-bromo-5-trifluoromethylanilino)pyridine]
Mortality grading (kill) [1]: 0 (O represents less than 30% kill)
Amount of disease grading, disease D [13]: 0 (61 to 100)
Mortality grading (kill) [2]: 0 (O represents less than 30% kill)
Mortality grading (kill) [3]: 0 (O represents less than 30% kill)
Mortality grading (kill) [4]: 0 (O represents less than 30% kill)
Mortality grading (kill) [6]: 0 (O represents less than 30% kill)
abnormal growth effects in larva of mosquitos [6]: abnormal growth effects
Amount of disease grading, disease A [14]: 0 (61 to 100)
Amount of disease grading, disease E [15]: 2 (6 to 25)
Mortality grading (kill) ([7]; in vivo): 0 (key: O represents less than 30% kill; 1 represents 30 - 49% kill; 2 represents 60 - 90% kill; 3 represents over 90% kill; C indicates a chemosterilant effect.; A indicates an antifeeding effect.)
Mortality grading (kill) [8]: 0 (O represents less than 30% kill)
Mortality grading (kill) [9]: 0 (O represents less than 30% kill)
Mortality grading (kill), contact test [10]: 0 (O represents less than 30% kill)
Mortality grading (kill) ([11]; in vivo): 0 (key: O represents less than 30% kill; 1 represents 30 - 49% kill; 2 represents 60 - 90% kill; 3 represents over 90% kill; C indicates a chemosterilant effect.; A indicates an antifeeding effect.)
Mortality grading (kill) [12]: 0 (O represents less than 30% kill)
Amount of disease grading, disease C [16]: 3 (0 to 5)

O=[N+]([O-])c1cc(C(F)(F)F)ccc1Nc1c(Cl)c(F)nc(F)c1Cl [Compound 16, 3,5-Dichloro-2,6-difluoro-4(2-nitro-4-trifluoromethylanilino) pyridine]
Mortality grading (kill) [1]: 0 (O represents less than 30% kill)
Amount of disease grading, disease D [13]: 0 (61 to 100)
Mortality grading (kill) [2]: 0 (O represents less than 30% kill)
Mortality grading (kill) [3]: 2 (2 represents 60 - 90% kill)
Mortality grading (kill) [4]: 2 (2 represents 60 - 90% kill)
% Kill of slugs [5]: 50%
Mortality grading (kill) [6]: 0 (O represents less than 30% kill)
Amount of disease grading, disease B [17]: 0 (61 to 100)
Amount of disease grading, disease A [14]: 0 (61 to 100)
Amount of disease grading, disease E [15]: 0 (61 to 100)
Mortality grading (kill) ([7]; in vivo): 0 (key: O represents less than 30% kill; 1 represents 30 - 49% kill; 2 represents 60 - 90% kill; 3 represents over 90% kill; C indicates a chemosterilant effect.; A indicates an antifeeding effect.)
Mortality grading (kill) [8]: 0 (O represents less than 30% kill)
Mortality grading (kill) [9]: 0 (O represents less than 30% kill)
Mortality grading (kill), contact test [10]: 0 (O represents less than 30% kill)
Mortality grading (kill) ([11]; in vivo): 0 (key: O represents less than 30% kill; 1 represents 30 - 49% kill; 2 represents 60 - 90% kill; 3 represents over 90% kill; C indicates a chemosterilant effect.; A indicates an antifeeding effect.)
Mortality grading (kill) [12]: 0 (O represents less than 30% kill)
Amount of disease grading, disease C [16]: 3 (0 to 5)

COc1ccc(Nc2c(Cl)c(F)nc(F)c2Cl)c([N+](=O)[O-])c1 [Compound 18, 3,5-Dichloro-2,6-difluoro-4(4-methoxy-2-nitroanilino)pyridine]
Mortality grading (kill) [1]: 0 (O represents less than 30% kill)
Mortality grading (kill) [2]: 0 (O represents less than 30% kill)
Mortality grading (kill) [3]: 0 (O represents less than 30% kill)
Mortality grading (kill) [4]: 0 (O represents less than 30% kill)
% Kill of slugs [5]: 50%
Mortality grading (kill) [6]: 0 (O represents less than 30% kill)
Mortality grading (kill) ([7]; in vivo): 0 (key: O represents less than 30% kill; 1 represents 30 - 49% kill; 2 represents 60 - 90% kill; 3 represents over 90% kill; C indicates a chemosterilant effect.; A indicates an antifeeding effect.)
Mortality grading (kill) [8]: 0 (O represents less than 30% kill)
Mortality grading (kill) [9]: 0 (O represents less than 30% kill)
Mortality grading (kill) ([11]; in vivo): 0 (key: O represents less than 30% kill; 1 represents 30 - 49% kill; 2 represents 60 - 90% kill; 3 represents over 90% kill; C indicates a chemosterilant effect.; A indicates an antifeeding effect.)
Mortality grading (kill) [12]: 2 (2 represents 60 - 90% kill)

Fc1nc(F)c(Cl)c(Nc2c(F)c(F)c(Br)c(F)c2F)c1Cl [Compound 30, 4(4-Bromo-2,3,5,6-tetrafluoroanilino)-3,5-dichloro-2,6-difluoropyridine]
Mortality grading (kill) [1]: 0 (O represents less than 30% kill)
Amount of disease grading, disease D (Table 4) [13]: 0 (61 to 100)
Mortality grading (kill) [2]: 0 (O represents less than 30% kill)
Mortality grading (kill) [3]: 3 (3 represents over 90% kill)
Mortality grading (kill) [4]: 3 (3 represents over 90% kill)
% Kill of slugs [5]: 100%
Mortality grading (kill) [6]: 3 (3 represents over 90% kill)
Amount of disease grading, disease B (Table 4) [17]: 1 (26 to 60)
Amount of disease grading, disease A (Table 4) [14]: 0 (61 to 100)
Amount of disease grading, disease E (Table 4) [15]: 0 (61 to 100)
Mortality grading (kill) ([7]; in vivo): 0 (key: O represents less than 30% kill; 1 represents 30 - 49% kill; 2 represents 60 - 90% kill; 3 represents over 90% kill; C indicates a chemosterilant effect.; A indicates an antifeeding effect.)
Mortality grading (kill) [8]: 2 (2 represents 60 - 90% kill)
Mortality grading (kill) [9]: 3 (3 represents over 90% kill)
Mortality grading (kill), contact test [10]: 0 (O represents less than 30% kill)
Mortality grading (kill) ([11]; in vivo): 1 (key: O represents less than 30% kill; 1 represents 30 - 49% kill; 2 represents 60 - 90% kill; 3 represents over 90% kill; C indicates a chemosterilant effect.; A indicates an antifeeding effect.)
Mortality grading (kill) [12]: 0 (O represents less than 30% kill)
Amount of disease grading, disease C (Table 4) [16]: 3 (0 to 5)
